Measurements taken from paper PMC12064818, “A general assay platform to study protein pharmacology using ligand-dependent structural dynamics” (Nature Communications, 2025).
Where “and” joins values, the source holds several entries; their conditions need not be identical. Equal values may be shown once. Where a name gives a salt, the structure may show the parent alone. Read-outs that look alike come from different tables or passages of the source.

Assays:
PKA-N-HiBiT [1] = biological target: T1, PKA-N-HiBiT (Homo sapiens, UniProt P17612); experiment: PKA peptide phosphorylation, Kinase-Glo Plus (KGP) assay, PKA-N-HiBiT; format: biochemical; design: containing amino acids Gly2-Phe351; His10 (N); made in house; host or cells: E. coli BL21(DE3); settings: for Efficacy / Hill Coef / Max Resp / CC-v2: KGP Rep 1; for CC-v2: curve class
Experimental: (§1) Kinase activity was measured by ATP depletion using the Kinase-Glo Plus (KGP) assay kit (Promega) in 1536-well plate format. […] Controls were added with a Mosquito dispenser (STP LabTech) while compounds were transferred with a pintool to each plate as described in Supplementary Data 8 and incubated for 30 min at ambient temperature. […] Following a 10 min incubation, KGP luminescence was measured with a ViewLux plate reader with 1 sec exposure, with medium to high gain setting, slow speed and 2x binning. Data were normalized to the average of no enzyme control column as 100% kinase inhibition and DMSO control column as 100% phosphorylation reaction progress. See Supplementary Table 5 for additional details.
(§2) Protocol for Abelson kinase (ABL1) and protein kinase A (PKA) peptide phosphorylation assays
(§3) Supplementary Table 5: Protocol for Abelson kinase (ABL1) and protein kinase A (PKA) peptide phosphorylation assays Sequence Param eter Value Description
(§4) 3 Incubation 30 m in Incubate enzym e + com pounds at am bient tem p for 30 m in, protected from light […]
(§5) protocol; dispensed with BioRaptr 2

PKA-N-HiBiT [2] = biological target: T1, PKA-N-HiBiT; experiment: SDR assay, PKA-N-HiBiT; settings: for PKA SDR: Log [H-89]; for SDR Ave Max Response: average maximal response
PKA = settings: annotation yes/no for kinase library compound; source not given; cited from earlier work
ABL1 = settings: cited from earlier work
[3] = biological target: T2, ABL1-N-HiBiT kinase domain (Homo sapiens, UniProt P00519); experiment: SDR assay, ABL1-N-HiBiT; settings: for ABL1 SDR pSDR50: heatmap data, 128 kinase inhibitors; for EC50: read-out: SDR Ave SDR50, average, unit inferred
T2 sequence (P00519 233-500): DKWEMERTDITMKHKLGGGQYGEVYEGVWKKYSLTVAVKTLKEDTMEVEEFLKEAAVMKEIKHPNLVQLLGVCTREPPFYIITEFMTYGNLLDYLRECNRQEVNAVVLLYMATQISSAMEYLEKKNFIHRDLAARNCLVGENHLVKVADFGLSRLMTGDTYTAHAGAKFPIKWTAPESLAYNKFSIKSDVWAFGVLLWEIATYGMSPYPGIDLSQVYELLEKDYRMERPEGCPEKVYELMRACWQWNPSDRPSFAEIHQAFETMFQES

[4] = biological target: T2, ABL1-N-HiBiT kinase domain; experiment: ABL1 peptide phosphorylation, Kinase-Glo Plus (KGP) assay, ABL1-N-HiBiT; format: biochemical; design: containing amino acid residues Asp233-Ser500; His10 (N); made in house; host or cells: E. coli BL21(DE3); settings: for IC50: ABL1-N-HiBiT qHTS, average, unit inferred, read-out: ABL1 KGP Ave IC50; for ABL1 KGP pIC50: ABL1, Kinase-Glo Plus (KGP), heatmap data, 128 kinase inhibitors; for Efficacy / Hill Coef / Max Resp / CC-v2: KGP Rep 1; for CC-v2: curve class
Experimental: as §1, §2, §3, §4, §5

[5] = PKA-N-HiBiT […] Std, ligand 62.5 µM Std
[6] = PKA-N-HiBiT 10 nM SDR, ligand 35.7 µM SDR
[7] = ABL1-N-HiBiT qHTS, average maximal SDR response
[8] = Figure 2i correlation plot data, read-out: ABL1 Enz Assay Mean (PKA KGP assay pIC50) (converted)
[9] = read-out: PKA SDR Ave SDR50, PKA-N-HiBiT qHTS, SDR assay, average
[10] = PKA-N-HiBiT qHTS, Kinase-Glo Plus, average, read-out: PKA KGP Ave IC50

Molecule	SDR Ave Max Response (PKA-N-HiBiT [2]; PKA-N-HiBiT qHTS, SDR assay)	Annotated PKA activity (PKA)	Annotated ABL1 activity (ABL1)	ABL1 SDR pSDR50 [3]	SDR Ave Max Response [3, 7]	EC50 ([3]; ABL1-N-HiBiT qHTS) [µM]	EC50 (PKA-N-HiBiT [2]; [9]) [µM]	also measured
O=S(=O)(NCCNC/C=C/c1ccc(Br)cc1)c1cccc2cnccc12 [H-89, reference compound]								Standard assay statistics Ave RLU (PKA-N-HiBiT [1]; [5]): 21788.2 RLU; Standard assay statistics S:B (PKA-N-HiBiT [1]; [5]): 6.8; Standard assay statistics S:N (PKA-N-HiBiT [1]; [5]): 6.3; Standard assay statistics Z’ (PKA-N-HiBiT [1]; [5]): 0.328; PKA SDR (PKA-N-HiBiT [2]; M -4.45): 61.3 and 59.1 and 49.2; PKA SDR (PKA-N-HiBiT [2]; M -4.75): 61.4 and 58.5 and 52.3; PKA SDR (PKA-N-HiBiT [2]; M -5.05): 60.9 and 55.5 and 49.6; PKA SDR (PKA-N-HiBiT [2]; M -5.35): 55.3 and 45.9 and 48.2; PKA SDR (PKA-N-HiBiT [2]; M -5.65): 48.5 and 39.4 and 60.1; PKA SDR (PKA-N-HiBiT [2]; M -5.95): 47.4 and 33.3 and 39.2; PKA SDR (PKA-N-HiBiT [2]; M -6.25): 38.3 and 24.0 and 33.5; PKA SDR (PKA-N-HiBiT [2]; M -6.55): 31.1 and 18.8 and 27.3; SDR assay statistics Ave RLU (PKA-N-HiBiT [2]; [6]): 31921.7 RLU; SDR assay statistics S:B (PKA-N-HiBiT [2]; [6]): 1.5; SDR assay statistics S:N (PKA-N-HiBiT [2]; [6]): 2.6; SDR assay statistics Z’ (PKA-N-HiBiT [2]; [6]): -0.628
N#Cc1cn([C@@H]2O[C@H](CO)[C@@H](O)[C@H]2O)c2ncnc(N)c12 [Toyocamycin]	-0.53	no	no	4.93	72.44	12.8		
Cn1cc(-c2[nH]c3cc(NC(=O)[C@H](N)C4CCCCC4)cc4c3c2C=NNC4=O)cn1 [PF-477736]								IC50 (PKA-N-HiBiT [1]; [8]): 4.47 µM; EC50 (PKA-N-HiBiT [2]): 1.26 µM
C/C(O)=C(\C#N)C(=O)Nc1cc(Br)ccc1Br [LFM-A13]	-81.79	no	no	5.44	-82.68	3.72	4.14	PKA SDR Assay Mean (pSDR50) (PKA-N-HiBiT [2]; without ATP): 5.40
c1cc(-c2cc(C3CCNCC3)[nH]n2)ccn1 [ETP 45835 2HCl]	25.66	no		5.02	-32.09	9.57	19.7	IC50 (PKA-N-HiBiT [1]; [8]): 83.2 µM; EC50 (PKA-N-HiBiT [2]): 8.32 µM
O=c1c(O)c(-c2ccc(O)c(O)c2)oc2cc(O)cc(O)c12 [Quercetin]	-5.00	no			48.80	9.18		Efficacy (PKA-N-HiBiT [1]): -15.69; Hill Coef (PKA-N-HiBiT [1]): 1.22; Max Resp (PKA-N-HiBiT [1]): 9.03; CC-v2 (PKA-N-HiBiT [1]): 4; IC50 [4]: 5.88 µM
O=C(Nc1c[nH]nc1-c1nc2ccc(CN3CCOCC3)cc2[nH]1)NC1CC1 [AT9283]	67.79	yes					0.0453	IC50 (PKA-N-HiBiT [1]; [10]): 0.861 µM; EC50 (PKA-N-HiBiT [2]): 0.0437 µM
COc1cc2c(Oc3ccc4[nH]c(C)cc4c3F)ncnc2cc1OCCCN1CCCC1 [Cediranib]	5.41	no	yes					SDR Ave Max Response [3]: 72.22
CC(C)(C)n1nc(-c2cccc3ccccc23)c2c(N)ncnc21 [1-Naphthyl PP1]	10.40	no	yes		61.87			
PF-477736	33.34	no		6.38	81.41	0.432	1.29	IC50 (PKA-N-HiBiT [1]; [10]): 5.32 µM; ABL1 KGP pIC50 [4]: 6.01; IC50 [4]: 1.04 µM
I-BET762			no		6.74			
CCN1/C(=C/C(C)=O)Sc2ccc(OC)cc21 [TG003]	6.70	no			9.57			Efficacy (PKA-N-HiBiT [1]): 0.00; Max Resp (PKA-N-HiBiT [1]): 8.95; CC-v2 (PKA-N-HiBiT [1]): 4; Efficacy [4]: 49.18; Hill Coef [4]: 4.96; Max Resp [4]: 37.84; CC-v2 [4]: 3
COc1cc(N2CCN(C)CC2)ccc1Nc1nc(N)c(C(=O)c2c(Cl)cccc2Cl)s1 [HMSL10089]	-4.43	no	no					SDR Ave Max Response [3]: 0.77
Nc1ncnc2c1c(-c1cnc3[nH]ccc3c1)nn2C1CCCC1 [PP-121]	6.39	yes	yes					
PF-562271 HCl	40.60	no		4.94	70.73	12	4.56	IC50 (PKA-N-HiBiT [1]; [10]): 45.5 µM; IC50 [4]: 5.86 µM
COc1ccc(S(=O)(=O)N(C(C)=O)c2ccccc2/C=C/c2cc[n+]([O-])cc2)cc1 [HMN-214]	5.93	no	no		8.52			
N[C@H]1CC[C@H](Nc2nc(Nc3ccc(C(=O)N4CCCCC4)cc3)c3ncn(-c4cccc(F)c4)c3n2)CC1 [Purfalcamine]	23.75	no		6.61	91.87	0.248		IC50 (PKA-N-HiBiT [1]; [8]): 22.9 µM; IC50 (PKA-N-HiBiT [1]; [10]): 30 µM; ABL1 KGP pIC50 [4]: 5.42; IC50 [4]: 3.88 µM; EC50 (PKA-N-HiBiT [2]): 117 µM
Cc1cc(O)c2c(c1)C(=O)c1cc(O)cc(O)c1C2=O [Emodin]	-14.68	no			-3.42		15.2	Efficacy (PKA-N-HiBiT [1]): -14.49; Hill Coef (PKA-N-HiBiT [1]): 3.19; Max Resp (PKA-N-HiBiT [1]): 8.59; CC-v2 (PKA-N-HiBiT [1]): 4; Efficacy [4]: 23.75; Hill Coef [4]: 1.10; Max Resp [4]: 17.37; CC-v2 [4]: 4; EC50 (PKA-N-HiBiT [2]): 14.1 µM
O=[N+]([O-])O[C@H]1CO[C@H]2[C@@H]1OC[C@H]2O[N+](=O)[O-] [Isosorbide dinitrate]	6.02	no	no		6.72			
Cc1n[nH]c2ccc(-c3cncc(OC[C@@H](N)Cc4c[nH]c5ccccc45)c3)cc12 [A-443654]	40.10	yes		5.32	-27.36	5.63	0.188	IC50 (PKA-N-HiBiT [1]; [10]): 2.06 µM
COc1cc(N2CCOCC2)ccc1Nc1ncc(Cl)c(Nc2ccccc2NS(C)(=O)=O)n1 [CZC 54252 HCl]	40.07	no		5.09	69.42	9.66	1.58	IC50 (PKA-N-HiBiT [1]; [8]): 33.9 µM; IC50 (PKA-N-HiBiT [1]; [10]): 49.9 µM; ABL1 KGP pIC50 [4]: 5.38; IC50 [4]: 10.1 µM; EC50 (PKA-N-HiBiT [2]): 1.35 µM
CN(c1ncccc1CNc1nc(Nc2ccc3c(c2)CC(=O)N3)ncc1C(F)(F)F)[S+](C)(=O)[O-] [PF-562271 HCl]								IC50 (PKA-N-HiBiT [1]; [8]): 44.7 µM; EC50 (PKA-N-HiBiT [2]): 3.98 µM
COc1cc2c(N3CCN(C(=O)Nc4ccc(OC(C)C)cc4)CC3)ncnc2cc1OCCCN1CCCCC1 [Tandutinib]	7.68	no	no					SDR Ave Max Response [3]: 63.54
CCN(CC)CCOc1ccc(Nc2ncc3cc(-c4c(Cl)cccc4Cl)c(=O)n(C)c3n2)cc1.Cl.Cl.O [PD-166285 hydrate]	-22.35	no	yes		51.60			
